Read-outs that look alike come from different tables or passages of the source.
Legend:
Type in all cases: in vivo
Kochia (Kochia scoparia) [1] = assay: Test A preemergence; conditions: Bassia scoparia, pre-emergence, 240 h; for pest or weed control at 500 g/ha: 500 g ai/ha; for pest or weed control at 125 g/ha: 125 g ai/ha
How it was run: (§1)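 Seeded soil received test chemicals as a preemergence directed spray, and seedlings at one to two leaves, 2–10 cm tall, received them postemergence, in a non-phytotoxic, surfactant-containing solvent mixture. Pots were held in a greenhouse for approximately 10 d, then rated for injury from 0, no effect, to 100, complete control.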

[2] = tested on: Galium (catchweed bedstraw, Galium aparine); assay: Test A postemergence; conditions: Galium, post-emergence, 240 h, read-out: Plant response rating, Galium; for pest or weed control at 125 g/ha: 125 g ai/ha
How it was run: as §1

Kochia (Kochia scoparia) [3] = assay: Test A postemergence; conditions: Bassia scoparia, post-emergence, 240 h, read-out: Plant response rating, Kochia; for pest or weed control at 125 g/ha: 125 g ai/ha
How it was run: as §1

[4] = tested on: barnyardgrass (Echinochloa crus-galli); assay: Test A postemergence; conditions: Echinochloa crus-galli, post-emergence, 240 h, read-out: Plant response rating, Barnyardgrass; for pest or weed control at 125 g/ha: 125 g ai/ha
How it was run: as §1

[5] = tested on: blackgrass (Alopecurus myosuroides); assay: Test A postemergence; conditions: Alopecurus myosuroides, post-emergence, 240 h, read-out: Plant response rating, Blackgrass; for pest or weed control at 125 g/ha: 125 g ai/ha
How it was run: as §1

corn (Zea mays) = assay: Test A postemergence; conditions: Zea mays, post-emergence, 240 h; for Corn plant response rating (crop injury, 0 = no effect, 100 = complete kill) at 125 g/ha: 125 g ai/ha
How it was run: as §1

[6] = tested on: giant foxtail (Setaria faberii); assay: Test A postemergence; conditions: Setaria faberi, post-emergence, 240 h, read-out: Plant response rating, Foxtail, Giant; for pest or weed control at 125 g/ha: 125 g ai/ha
How it was run: as §1

[7] = tested on: pigweed (Amaranthus retroflexus); assay: Test A postemergence; conditions: Amaranthus retroflexus, post-emergence, 240 h, read-out: Plant response rating, Pigweed; for pest or weed control at 125 g/ha: 125 g ai/ha
How it was run: as §1

[8] = tested on: ragweed (common ragweed, Ambrosia elatior); assay: Test A postemergence; conditions: Ambrosia artemisiifolia, post-emergence, 240 h, read-out: Plant response rating, Ragweed; for pest or weed control at 125 g/ha: 125 g ai/ha
How it was run: as §1

[9] = tested on: ryegrass, Italian (Italian ryegrass, Lolium multiflorum); assay: Test A postemergence; conditions: Lolium multiflorum, post-emergence, 240 h, read-out: Plant response rating, Ryegrass, Italian; for pest or weed control at 125 g/ha: 125 g ai/ha
How it was run: as §1

[10] = tested on: wheat (Triticum aestivum); assay: Test A postemergence; conditions: Triticum aestivum, post-emergence, 240 h, read-out: Plant response rating, Wheat; for plant injury at 125 g/ha: 125 g ai/ha
How it was run: as §1

[11] = tested on: barnyardgrass (Echinochloa crus-galli); assay: Test B flooded paddy test; conditions: Echinochloa crus-galli, Flood, 250 g ai/ha
How it was run: (§2)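 Plants at 2-leaf stage flooded to 3 cm above soil, with compounds applied directly to paddy water and that depth maintained. Plants kept in greenhouse 13–15 d. Visual rating versus controls on a 0 (no effect) to 100 (complete control) scale.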

[12] = tested on: ducksalad (Heteranthera limosa); assay: Test B flooded paddy test; conditions: Heteranthera limosa, Flood, 250 g ai/ha
How it was run: as §2

rice (Oryra sativa) = assay: Test B flooded paddy test; conditions: Oryza sativa, Flood, 250 g ai/ha
How it was run: as §2

[13] = tested on: sedge, umbrella (small-flower umbrella sedge, Cyperus difformis); assay: Test B flooded paddy test; conditions: Cyperus difformis, Flood, 250 g ai/ha
How it was run: as §2

[14] = Postemergence, visual injury after approx. 10 d, 0 to 100 scale, 0 no effect, 100 complete control
[15] = Postemergence, 500 g ai/ha, visual injury, 0 to 100 scale (0 no effect, 100 complete control), approx. 10 d
[16] = preemergence, visual rating after approx. 10 d, 0 to 100 scale where 0 is no effect and 100 is complete control, read-out: Plant response rating, Kochia
[17] = postemergence, visual injury after approximately 10 d, 0 to 100 scale (0 no effect, 100 complete control)
[18] = scale of 0 to 100 where 0 is no effect and 100 is complete control, read-out: Barnyardgrass plant response rating
[19] = scale of 0 to 100 where 0 is no effect and 100 is complete control, read-out: Ducksalad plant response rating
[20] = scale of 0 to 100 where 0 is no effect and 100 is complete control, read-out: Rice plant response rating
[21] = scale of 0 to 100 where 0 is no effect and 100 is complete control, read-out: Sedge, Umbrella plant response rating

CN1CC[C@H](c2cccc(C(F)(F)F)c2)[C@@H](C(=O)Nc2ccc(F)c(F)c2F)C1=O [Compound 1395]
pest or weed control at 500 g/ha (Kochia (Kochia scoparia) [1]; preemergence, 0 to 100 scale (0 no effect, 100 complete control), read-out: Plant response rating, Kochia): 0%
pest or weed control at 125 g/ha (Kochia (Kochia scoparia) [1]; Preemergence, 0 to 100 scale (0 no effect, 100 complete control), read-out: Plant response rating, Kochia): 0%
pest or weed control at 125 g/ha [2, 14]: 0%
pest or weed control at 500 g/ha [2, 15]: 0%
pest or weed control at 125 g/ha (Kochia (Kochia scoparia) [3]; [14]): 0%
pest or weed control at 500 g/ha (Kochia (Kochia scoparia) [3]; [15]): 0%
pest or weed control at 125 g/ha [4, 14]: 90%
pest or weed control at 500 g/ha [4, 15]: 90%
pest or weed control at 125 g/ha [5, 14]: 70%
pest or weed control at 500 g/ha [5, 15]: 0%
Corn plant response rating (crop injury, 0 = no effect, 100 = complete kill) at 125 g/ha (corn (Zea mays); [14]): 50%
Corn plant response rating (crop injury, 0 = no effect, 100 = complete kill) at 500 g/ha (corn (Zea mays); [15]): 70%
pest or weed control at 125 g/ha [6, 14]: 90%
pest or weed control at 500 g/ha [6, 15]: 90%
pest or weed control at 125 g/ha [7, 14]: 0%
pest or weed control at 500 g/ha [7, 15]: 0%
pest or weed control at 125 g/ha [8, 14]: 0%
pest or weed control at 500 g/ha [8, 15]: 0%
pest or weed control at 125 g/ha [9, 14]: 20%
pest or weed control at 500 g/ha [9, 15]: 20%
plant injury at 125 g/ha [10, 14]: 20%
plant injury at 500 g/ha [10, 15]: 40%
pest or weed control at 250 g/ha ([11]; 360 h, visually evaluated after 13 to 15 d, read-out: Plant response rating, Barnyardgrass (0 to 100 scale where 0 is no effect and 100 is complete control)): 90%
pest or weed control at 250 g/ha ([12]; 360 h, visually evaluated after 13 to 15 d, read-out: Plant response rating, Ducksalad (0 to 100 scale where 0 is no effect and 100 is complete control)): 80%
pest or weed control at 250 g/ha (rice (Oryra sativa); 360 h, visually evaluated after 13 to 15 d, read-out: Plant response rating, Rice (0 to 100 scale where 0 is no effect and 100 is complete control)): 10%
pest or weed control at 250 g/ha ([13]; 360 h, visually evaluated after 13 to 15 d, read-out: Plant response rating, Sedge, Umbrella (0 to 100 scale where 0 is no effect and 100 is complete control)): 0%

CC(F)(F)c1cccc([C@H]2CNC(=O)[C@@H]2C(=O)Nc2ccc(F)cc2F)c1 [Compound 781]
pest or weed control at 125 g/ha (Kochia (Kochia scoparia) [1]; [16]): 50%
pest or weed control at 500 g/ha (Kochia (Kochia scoparia) [1]; Preemergence, visual injury vs untreated controls after approximately 10 d, read-out: Kochia plant response rating (0 to 100 scale where 0 is no effect and 100 is complete control)): 90%
pest or weed control at 125 g/ha [2, 17]: 60%
pest or weed control at 125 g/ha (Kochia (Kochia scoparia) [3]; [17]): 0%
pest or weed control at 125 g/ha [4, 17]: 90%
pest or weed control at 125 g/ha [5, 17]: 70%
Corn plant response rating (crop injury, 0 = no effect, 100 = complete kill) at 125 g/ha (corn (Zea mays); [17]): 60%
pest or weed control at 125 g/ha [6, 17]: 80%
pest or weed control at 125 g/ha [7, 17]: 0%
pest or weed control at 125 g/ha [8, 17]: 0%
pest or weed control at 125 g/ha [9, 17]: 20%
plant injury at 125 g/ha [10, 17]: 50%
pest or weed control at 250 g/ha [11, 18]: 65%
pest or weed control at 250 g/ha [12, 19]: 100%
pest or weed control at 250 g/ha (rice (Oryra sativa); [20]): 0%
pest or weed control at 250 g/ha [13, 21]: 0%

CCc1ccc([C@H]2CNC(=S)[C@@H]2C(=O)Nc2ccccc2SC)cc1 [Compound 763]
pest or weed control at 125 g/ha (Kochia (Kochia scoparia) [1]; [16]): 30%
pest or weed control at 500 g/ha (Kochia (Kochia scoparia) [1]; preemergence, 0 to 100 scale, 0 = no effect, 100 = complete control, read-out: Plant response rating, Kochia): 30%
pest or weed control at 125 g/ha [2, 17]: 0%
pest or weed control at 125 g/ha (Kochia (Kochia scoparia) [3]; [17]): 0%
pest or weed control at 125 g/ha [4, 17]: 0%
pest or weed control at 125 g/ha [5, 17]: 0%
Corn plant response rating (crop injury, 0 = no effect, 100 = complete kill) at 125 g/ha (corn (Zea mays); [17]): 0%
pest or weed control at 125 g/ha [6, 17]: 0%
pest or weed control at 125 g/ha [7, 17]: 0%
pest or weed control at 125 g/ha [8, 17]: 0%
pest or weed control at 125 g/ha [9, 17]: 0%
plant injury at 125 g/ha [10, 17]: 0%
pest or weed control at 250 g/ha [11, 18]: 0%
pest or weed control at 250 g/ha [12, 19]: 60%
pest or weed control at 250 g/ha (rice (Oryra sativa); [20]): 0%
pest or weed control at 250 g/ha [13, 21]: 0%

— patent US12077503B2, “Substituted cyclic amides and their use as herbicides” (FMC CORPORATION, priority 2015, dated 2024)
